Consider one compound from patent US20250312493A1, “FLUOROPHORE-LOADED GELATIN-BASED NANOPARTICLES FOR NEAR-INFRARED IMAGING” (The Board of Trustees of the University of Illinois, priority 2022, published 2025).

The nature of data set [1]: Fluorescence intensity of blood after intravenous administration. The data set is classed as in vivo, healthy nude mice. The note with it: 24-hour post-administration, equivalent to 2 mg/kg ICG. As for the experimental part: Healthy nude mice were administered with either 100 μl PBS solutions of ICG-free or ICG-GNP I (equivalent to 2 mg/kg ICG) intravenously via retro-orbital injection. 100 μl of blood was collected from the lateral tail vein immediately and 24 hours after the administration, transferred to a 96-well plate, and analyzed their fluorescence intensity using the IVIS (n=3).

In data set [2] the test system is 4T1 tumor. Nature of the data set: In vivo NIR fluorescence imaging, tumor to background ratio. Further details: species or system mice. The protocol:
Animal tumor model: Female immunodeficient mice (J:NU, 2 months old, average body weight 25 g) were purchased from the Jackson Laboratory (Bar Harbor, Maine, USA). Animal study was performed in strict accordance with the recommendations in the Guide for the Care and Use of Laboratory Animals of the National Institutes of Health. Breast cancer xenograft was established by the orthotopic administration of 100 μl 4T1 cell solution (10^6 cells per injection) at the mammary fat pad of the second nipple of the left side of each mouse using a 27G½ needle. Anesthesia was maintained by mask inhalation of 1.5-2.0% isoflurane throughout the procedure.
In vivo and ex vivo NIR fluorescence (NIRF) imaging: When the tumor area reached 10 mm^2 within 14 days, nine tumor-bearing mice were administered with ICG, ICG-GNP I or ICG-GNP II, i.e., three mice for each probe, […] The mice administered with ICG-GNP II were imaged using a bioinspired imaging sensor developed for NIRF image-guided surgery. At each time point, the fluorescence from the primary tumor and surrounding tissues (background) of mice under 2% isoflurane were recorded at 37° C. as regions of interest using the IVIS. A ratio between the mean fluorescence from the tumor and background was assessed and expressed as a TBR. […] The fluorescence intensity of each organ or tissue was acquired using the IVIS and bioinspired imaging sensor.

A short description of data set [3]: Fluorescence intensity at various ICG concentrations in PBS (IVIS). The format is physicochemical. Particulars: 0.05 μM-100 μM ICG. As for the experimental part: GNP I or GNP II dispersed in 1 ml of ICG in DI-H2O, with a GNP-to-ICG weight ratio of 20, were incubated for 2 hours at 25° C. The resulting suspension was centrifuged (13,000 rpm/5 min) to discard free ICG in the supernatant. The fluorescence intensity of naked ICG (ICG-free), ICG-loaded GNP I (ICG-GNP I) and GNP II (ICG-GNP II) at various ICG concentrations was recorded and quantified using an In Vivo Imaging System (IVIS, Perkin Elmer, Waltham, MA, USA) (ex 740/em 800 nm).

Consider `CC1(C)C(/C=C/C=C/C=C/C=C2\N(CCCCS(=O)(=O)O)c3ccc4ccccc4c3C2(C)C)=[N+](CCCCS(=O)(=O)[O-])c2ccc3ccccc3c21` [ICG-free, indocyanine green], for which the “fluorescence of blood samples” value in data set [1] is “minimal fluorescence”. Besides, in data set [2] (1 mg/kg dose), the “differences in MFI between the tumor and background” value is recorded as “no measurable differences”. For the same compound, the “TBR (tumor to background ratio)” value in data set [2] (during a 24-hour period, 2 mg/kg dose, IVIS) was around 1.5. Further, in data set [3], the “ICG concentration above which MFI decreases” value was “above 50 μM” and the “ICG concentration at which MFI reaches a peak” value came out at 10 µM.
